Assay results from PMC8360007, “Stereoselective Access to Antimelanoma Agents by Hybridization and Dimerization of Dihydroartemisinin and Artesunic acid” (Chemmedchem, 2021).
Like-named read-outs stand apart in the source and are kept apart here.

Experiments:
[1] = tested on: metastatic melanoma cancer cell line RPMI7951; test: cell survival MTT assay on metastatic melanoma cancer cell line RPMI7951; assay type: cell-based; conditions: Homo sapiens, RPMI-7951, read-out: IC50±SD RPMI7951
Experimental: (§1) The anticancer‐activity of DHA and ART hybrids 7‐β, 12‐β, 13‐α, 14‐α, 15‐α, and 16‐α, and of DHA and ART dimers 17‐α,α, 18‐α,α, 19‐β,β, 20‐α,α, 21‐α,α and 22‐α,α, was evaluated by the cell survival MTT assay on metastatic melanoma cancer cell line RPMI7951. Artemisinin 1, DHA 2, ART 3, hybrids 5–7, dimer 8, and commercially available drug paclitaxel (Taxol) were used as reference. In addition, data were compared with experiments performed on normal human primary fibroblast cell line (C3PV). Table 1 reports the IC50 (half‐maximal inhibitory concentration) and CC50 (half‐maximal cytotoxic concentration) values of the tested compounds.
(§2) The primary human fibroblast C3PV cell line was treated according to Botta et al.[27] Metastatic melanoma cell line (RPMI7951) was grown in Eagle's Minimum Essential Medium (EMEM) containing 15 % and 10 % FBS respectively, in addition to penicillin (100 U/ml) and streptomycin (1 mg/ml). The cell lines were maintained at 37 °C in a humidified atmosphere (95 %) in the presence of 5.0 % CO2. Prostate cancer (PC3) and breast cancer (MDA‐MB‐231) cell lines were raised in DMEM/F12 and RMPI1640 medium, respectively. To the medium was added 10 % FBS, 1 mM Glutammine and 40 μg/ml of Gentamicin. All cell lines were mantained at 37 °C in a humidified atmosphere (95 %) in the presence of 5.0 of CO2.
To study the effect of artemisinin and its derivatives on cell viability C3PV, RPMI7951, PC3, MDA‐MB‐231 cell lines were seeded in 96‐well plates (6000 cells/well in 100 μl medium) and incubated overnight to allow cell adherence. After, the medium was replaced with fresh medium containing the appropriate dose of compound. Artemisinin and its derivatives were used in a range of […] for 24 h. The analyses of cell viability were done at the end of treatment. […]
(§3) The CC50 and IC50 values were determined by non‐linear regression using the program graphpad prism 6.
(§4) Cell viability was evaluated using MTT cell proliferation assay. Briefly, after incubation for 3 h at 37 °C with MTT (0.5 mg/ml) the supernatant was replaced with 100 μl of a lysis solution containing 10 % SDS, 0.6 % Acetic acid in DMSO to dissolve the formazan crystals. Optical density measurements were performed with a scanning spectrophotometer DTX880 Multimode Detector (Beckman Coulter) using a 630 nm (background) and a 570 nm filter.

[2] = MTT cell viability (cytotoxicity) on normal human primary fibroblast C3PV; assay type: cell-based
Experimental: as §1, §2
(§5) To study the effect of artemisinin and its derivatives on cell viability C3PV, RPMI7951, PC3, MDA‐MB‐231 cell lines were seeded in 96‐well plates (6000 cells/well in 100 μl medium) and incubated overnight to allow cell adherence. After, the medium was replaced with fresh medium containing the appropriate dose of compound. […] The analyses of cell viability were done at the end of treatment. The assays were performed in quadruplicate for both treatments.
as §3, §4

[3] = as above; assay type: cell-based; conditions: C3PV normal primary fibroblast cells, 24 h treatment, triplicate, read-out: CC50±SD C3PV
[4] = tested on: human breast (MDA‐MB‐231) cancer cell line; test: MTT cell viability on breast cancer MDA‐MB‐231 cell line; assay type: cell-based; conditions: triplicate, read-out: IC50±SD MDA‐MB‐231
Experimental: (§6) The effect of dimers 20–22‐α,α was further evaluated against other tumour types, such as human prostate and breast cancers in PC3 and MDA‐MB‐231 cell lines, respectively (Table 2).
as §2, §5, §4

[5] = tested on: human prostate (PC3) cancer cell line; test: MTT cell viability on prostate cancer PC3 cell line; assay type: cell-based; conditions: PC-3, triplicate, read-out: IC50±SD PC3
Experimental: as §6, §2, §5, §4

[6] = tested on: normal human primary fibroblast cell line (C3PV); parameters: method as in PMID 31956771; conditions: cytotoxicity data from ref. 12; read-out: CC50±SD C3PV; cited from earlier work
[7] = tested on: metastatic melanoma cancer cell line RPMI7951; parameters: method as in PMID 31956771; conditions: cited from earlier work
[8] = stability in assay medium by HPLC; assay type: physicochemical; conditions: 24 and 48 hours, 25 °C, pH=7, in comparison with artesunic acid 3
[9] = MTT, 24 h treatment, triplicate
[10] = antimelanoma data from ref. 12, read-out: IC50±SD RPMI7951

SMILES	IC50 [1, 9] [nM]	CC50 at 24 h [2] [nM]	also measured
CC1CCC2C(C)C(Oc3ccc(CCO)cc3)OC3OC4(C)CCC1C32OO4 (stereo not drawn) [7‐β]	200 ± 10	1140 ± 450	–
CC1CCC2C(C)C(OCCc3ccc(O)cc3)OC3OC4(C)CCC1C32OO4 (stereo not drawn) [12‐β]	400 ± 30	38200 ± 2560	–
C[C@H]1[C@H](OC(=O)CCC(=O)NCCc2ccc(O)cc2)O[C@@H]2O[C@@]3(C)CC[C@H]4[C@H](C)CC[C@@H]1[C@@]24OO3 [13‐α]	1700 ± 30	3390 ± 50	–
COC(=O)C(Cc1ccc(O)cc1)NC(=O)CCC(=O)O[C@@H]1O[C@@H]2O[C@@]3(C)CC[C@H]4[C@H](C)CC[C@@H]([C@H]1C)[C@@]24OO3 (stereo partly drawn) [14‐α]	1300 ± 70	6380 ± 1500	–
C[C@H]1[C@H](OC(=O)CCC(=O)Oc2ccc(CO)cc2)O[C@@H]2O[C@@]3(C)CC[C@H]4[C@H](C)CC[C@@H]1[C@@]24OO3 [15‐α]	2500 ± 50	55200 ± 7330	–
C[C@H]1[C@H](OC(=O)c2ccccc2C(=O)O)O[C@@H]2O[C@@]3(C)CC[C@H]4[C@H](C)CC[C@@H]1[C@@]24OO3 [16‐α]	4600 ± 30	8140 ± 850	–
C[C@H]1[C@H](OC(=O)CCC(=O)O[C@@H]2O[C@@H]3O[C@@]4(C)CC[C@H]5[C@H](C)CC[C@@H]([C@H]2C)[C@@]35OO4)O[C@@H]2O[C@@]3(C)CC[C@H]4[C@H](C)CC[C@@H]1[C@@]24OO3 [17‐α,α]	70 ± 10	–	CC50 at 24 h [3]: 250 ± 30 nM
C[C@H]1[C@H](OC(=O)c2ccccc2C(=O)O[C@@H]2O[C@@H]3O[C@@]4(C)CC[C@H]5[C@H](C)CC[C@@H]([C@H]2C)[C@@]35OO4)O[C@@H]2O[C@@]3(C)CC[C@H]4[C@H](C)CC[C@@H]1[C@@]24OO3 [18‐α,α]	10800 ± 1600	8000 ± 100	–
C[C@H]1[C@@H](OCCCCO[C@H]2O[C@@H]3O[C@@]4(C)CC[C@H]5[C@H](C)CC[C@@H]([C@H]2C)[C@@]35OO4)O[C@@H]2O[C@@]3(C)CC[C@H]4[C@H](C)CC[C@@H]1[C@@]24OO3 [19‐β,β]	3600 ± 950	5700 ± 790	–
CC1CCC2C(C)C(OC(=O)CCC(=O)NCCc3ccc(OC(=O)CCC(=O)OC4OC5OC6(C)CCC7C(C)CCC(C4C)C57OO6)cc3)OC3OC4(C)CCC1C32OO4 (stereo not drawn) [20‐α,α]	2450 ± 50	228000 ± 1500	IC50 [4]: 1300 ± 850 nM; IC50 ([1]; in absence of DFO): 2450 ± 50 nM; IC50 [5]: 2300 ± 350 nM
COC(=O)C(Cc1ccc(OC(=O)CCC(=O)OC2OC3OC4(C)CCC5C(C)CCC(C2C)C35OO4)cc1)NC(=O)CCC(=O)OC1OC2OC3(C)CCC4C(C)CCC(C1C)C24OO3 (stereo not drawn) [21‐α,α]	1760 ± 30	> 300000	IC50 [4]: 3080 ± 850 nM; IC50 ([1]; in absence of DFO): 1760 ± 30 nM; IC50 [5]: 3040 ± 340 nM
C[C@@H]1CC[C@H]2[C@@H](C)C(=O)O[C@@H]3O[C@@]4(C)CC[C@@H]1[C@]32OO4 [Compound 1, artemisinin]	3620 ± 990	–	CC50 at 24 h [3]: > 300000 nM
C[C@H]1[C@@H](O)O[C@@H]2O[C@@]3(C)CC[C@H]4[C@H](C)CC[C@@H]1[C@@]24OO3 [Compound 2, dihydroartemisinin]	910 ± 450	680 ± 190	–
C[C@H]1[C@H](OC(=O)CCC(=O)O)O[C@@H]2O[C@@]3(C)CC[C@H]4[C@H](C)CC[C@@H]1[C@@]24OO3 [Compound 3, artesunic acid]	1080 ± 560	–	CC50 at 24 h [3]: 1680 ± 440 nM
C[C@@H]1CC[C@H]2[C@@H](C)C(OCCc3ccc(O)cc3)O[C@@H]3O[C@@]4(C)CC[C@@H]1[C@]32OO4 (stereo partly drawn) [Compound 5]	–	–	CC50 [6]: 1760 ± 310 nM; IC50 [7, 10]: 330 ± 80 nM
C[C@@H]1CC[C@H]2[C@@H](C)C(OC(=O)CCC(=O)OCCc3ccc(O)cc3)O[C@@H]3O[C@@]4(C)CC[C@@H]1[C@]32OO4 (stereo partly drawn) [Compound 6]	–	–	CC50 [6]: > 300000 nM; IC50 [7, 10]: 8340 ± 3060 nM
C[C@@H]1CC[C@H]2[C@@H](C)C(OC(=O)CCC(=O)Oc3ccc(CCO)cc3)O[C@@H]3O[C@@]4(C)CC[C@@H]1[C@]32OO4 (stereo partly drawn) [Compound 7]	–	–	CC50 [6]: 132000 ± 12600 nM; IC50 [7, 10]: 90 ± 30 nM
CC1CCC2C(C)C(OC(=O)CCC(=O)OCCc3ccc(OC(=O)CCC(=O)OC4OC5OC6(C)CCC7C(C)CCC(C4C)C57OO6)cc3)OC3OC4(C)CCC1C32OO4 (stereo not drawn) [Compound 8]	–	–	CC50 [6]: 6100 ± 3740 nM; IC50 [7, 10]: 490 ± 50 nM; IC50 ([7]; introduction, earlier library, read-out: IC50 against RPMI‐7951 cell line): 1370 ± 130 nM
CC1CCC2C(C)C(OC(=O)CCC(=O)OCc3ccc(OC(=O)CCC(=O)OC4OC5OC6(C)CCC7C(C)CCC(C4C)C57OO6)cc3)OC3OC4(C)CCC1C32OO4 (stereo not drawn) [Compound 22‐α,α]	50 ± 20	> 300000	IC50 [4]: 2400 ± 950 nM; IC50 ([1]; in absence of DFO): 50 ± 20 nM; stability after exposition to assay medium (HPLC) [8]: good stability; IC50 [5]: 3100 ± 190 nM
CC(=O)O[C@H]1C(=O)[C@@]2(C)[C@H]([C@H](OC(=O)c3ccccc3)[C@]3(O)C[C@H](OC(=O)[C@H](O)[C@@H](NC(=O)c4ccccc4)c4ccccc4)C(C)=C1C3(C)C)[C@]1(OC(C)=O)CO[C@@H]1C[C@@H]2O [Paclitaxel, paclitaxel, reference compound]	13	78900 ± 790	–
